The assay deals with PC3 cells. Kind of assay: NAMPT Cell Proliferation Assay. The note with it: Homo sapiens, PC-3, 120 h, 5 days incubation, cell viability by Cell Titer Glo. It counts as cell-based. Summed up:
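Following overnight attachment in RPMI with 10% heat-inactivated FBS, PC3 cells at 500 per well receive compounds spanning 10 μM down to 1×10^−5 μM. Growth is assessed by luminescent viability read after 5 days.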
By IC50 is commonly meant the concentration at which inhibition is half-maximal. Read a low IC50 as greater potency in that assay. Turning to `N#Cc1cnc(C(=O)N2CCC(c3ccc(NC(=O)NCc4ccn5ccnc5c4)cc3)CC2)c(Cl)c1` [Example 1126, 1-(4-{1-[(3-chloro-5-cyanopyridin-2-yl)carbonyl]piperidin-4-yl}phenyl)-3-(imidazo[1,2-a]pyridin-7-ylmethyl)urea], the IC50 stood at 2.36 nM.

Consider `CC1(C(=O)N2CCC(c3ccc(C(=O)NCc4ccc5ncnn5c4)s3)CC2)CC1` [Example 845, 5-{1-[(1-methylcyclopropyl)carbonyl]piperidin-4-yl}-N-([1,2,4]triazolo[1,5-a]pyridin-6-ylmethyl)thiophene-2-carboxamide], for which half-maximal inhibition (IC50) was put at 3.89 nM.

Compound `CC(C)C(=O)N1CCC(c2ccc(C(=O)NCc3cn4ccnc4cn3)c(F)c2)CC1` [Example 1160, 2-fluoro-N-(imidazo[1,2-a]pyrazin-6-ylmethyl)-4-[1-(2-methylpropanoyl)piperidin-4-yl]benzamide] gave an IC50 of 16.3 nM.

`O=C(NCc1ccn2ccnc2c1)c1ccc(C2CCN(C(=O)c3ccc(F)cc3F)CC2)s1` [Example 888, 5-[1-(2,4-difluorobenzoyl)piperidin-4-yl]-N-(imidazo[1,2-a]pyridin-7-ylmethyl)thiophene-2-carboxamide] came in with an IC50 of 0.494 nM.

On to `CC1(Cn2cc(-c3ccc(C(=O)NCc4ccn5ccnc5c4)s3)cn2)CCN(C(=O)CSC[C@H](N)C(=O)O)CC1` [Example 1164, S-(2-{4-[(4-{5-[(imidazo[1,2-a]pyridin-7-ylmethyl)carbamoyl]thiophen-2-yl}-1H-pyrazol-1-yl)methyl]-4-methylpiperidin-1-yl}-2-oxoethyl)-L-cysteine], for which the half-inhibitory concentration (IC50) amounted to 158 nM.

Compound `Cc1cc(C(=O)N2CCC(c3ccc(C(=O)NCc4ccn5ccnc5c4)cc3)CC2)nn1C(F)F` [Example 1109, 4-(1-{[1-(difluoromethyl)-5-methyl-1H-pyrazol-3-yl]carbonyl}piperidin-4-yl)-N-(imidazo[1,2-a]pyridin-7-ylmethyl)benzamide] returned an IC50 of 9.21 nM.

On to `N#Cc1ccc(C(=O)N2CCC(c3ccc(C(=O)NCc4ccn5ccnc5c4)cc3)CC2)c(Cl)c1` [Example 934, 4-[1-(2-chloro-4-cyanobenzoyl)piperidin-4-yl]-N-(imidazo[1,2-a]pyridin-7-ylmethyl)benzamide], for which the IC50 was 6.38 nM.

On to `O=C(NCc1ccn2ccnc2c1)Nc1ccc(C2CCN(C(=O)c3cc(C4CC4)no3)CC2)cc1` [Example 1034, 1-(4-{1-[(3-cyclopropyl-1,2-oxazol-5-yl)carbonyl]piperidin-4-yl}phenyl)-3-(imidazo[1,2-a]pyridin-7-ylmethyl)urea], for which the IC50 stood at 6.29 nM.

For the compound `O=C(NCc1ccn2ccnc2c1)Nc1ccc(C2CCN(C(=O)c3ccc4snnc4c3)CC2)cc1` [Example 1057, 1-{4-[1-(1,2,3-benzothiadiazol-5-ylcarbonyl)piperidin-4-yl]phenyl}-3-(imidazo[1,2-a]pyridin-7-ylmethyl)urea], half-maximal inhibition (IC50) was put at 25.8 nM.

Consider `COc1ccsc1C(=O)N1CCC(c2ccc(NC(=O)NCc3ccn4ccnc4c3)cc2)CC1` [Example 1051, 1-(imidazo[1,2-a]pyridin-7-ylmethyl)-3-(4-{1-[(3-methoxythiophen-2-yl)carbonyl]piperidin-4-yl}phenyl)urea], for which the IC50 came to 0.313 nM.

`O=C(NCc1ccc2ncnn2c1)c1ccc(C2CCN(C(=O)c3cc(F)ccc3F)CC2)s1` [Example 835, 5-[1-(2,5-difluorobenzoyl)piperidin-4-yl]-N-([1,2,4]triazolo[1,5-a]pyridin-6-ylmethyl)thiophene-2-carboxamide] displayed an IC50 of 3.95 nM.

Compound `O=C(NCc1ccc2ncnn2c1)c1ccc(C2CCN(C(=O)C3CCOCC3)CC2)s1` [Example 849, 5-[1-(tetrahydro-2H-pyran-4-ylcarbonyl)piperidin-4-yl]-N-([1,2,4]triazolo[1,5-a]pyridin-6-ylmethyl)thiophene-2-carboxamide] yielded an IC50 of 63.6 nM.

The compound `O=C(NCc1ccn2ccnc2c1)Nc1ccc(C2CCN(C(=O)/C=C/c3ccccn3)CC2)cc1` [Example 1040, 1-(imidazo[1,2-a]pyridin-7-ylmethyl)-3-(4-{1-[(2E)-3-(pyridin-2-yl)prop-2-enoyl]piperidin-4-yl}phenyl)urea] registered a concentration for half-maximal inhibition (IC50) of 13.4 nM.

As for `O=C(NCc1ccn2ccnc2c1)c1ccc(C2CCN(C(=O)c3cccc4ccncc34)CC2)cc1` [Example 997, N-(imidazo[1,2-a]pyridin-7-ylmethyl)-4-[1-(isoquinolin-8-ylcarbonyl)piperidin-4-yl]benzamide], it took 19.4 nM to reach half-maximal inhibition (IC50).

Compound `Cc1cc(Cl)c(C(=O)N2CCC(c3ccc(NC(=O)NCc4ccn5ccnc5c4)cc3)CC2)c(C)n1` [Example 1041, 1-(4-{1-[(4-chloro-2,6-dimethylpyridin-3-yl)carbonyl]piperidin-4-yl}phenyl)-3-(imidazo[1,2-a]pyridin-7-ylmethyl)urea] registered an IC50 of 2.41 nM.

Turning to `O=C(NCc1ccn2ccnc2c1)Nc1ccc(C2CCN(C(=O)C3CCOCC3)CC2)cc1F` [Example 1074, 1-{2-fluoro-4-[1-(tetrahydro-2H-pyran-4-ylcarbonyl)piperidin-4-yl]phenyl}-3-(imidazo[1,2-a]pyridin-7-ylmethyl)urea], the IC50 is 14.4 nM.

With `O=C(NCc1cn2ccnc2cn1)c1ccc(C2CCN(C(=O)c3ccccc3F)CC2)s1` [Example 827, 5-[1-(2-fluorobenzoyl)piperidin-4-yl]-N-(imidazo[1,2-a]pyrazin-6-ylmethyl)thiophene-2-carboxamide], the 50% inhibitory concentration (IC50) amounted to 0.625 nM.

Compound `O=C(Cc1ccc2nncn2c1)Nc1ccc(C2CCN(C(=O)c3ccccc3F)CC2)cc1` [Example 1162, N-{4-[1-(2-fluorobenzoyl)piperidin-4-yl]phenyl}-2-([1,2,4]triazolo[4,3-a]pyridin-6-yl)acetamide] returned an IC50 of 61.8 nM.

Turning to `O=C(Cc1ccc2nccn2c1)Nc1ccc(NC(=O)CC2CCCC2)cc1` [Example 854, 2-cyclopentyl-N-{4-[(imidazo[1,2-a]pyridin-6-ylacetyl)amino]phenyl}acetamide], the IC50 is 0.414 nM.

Regarding `O=C(Cc1ccc(F)cc1F)Nc1ccc(C(=O)NCc2ccn3ccnc3c2)cc1` [Example 891, 4-{[(2,4-difluorophenyl)acetyl]amino}-N-(imidazo[1,2-a]pyridin-7-ylmethyl)benzamide], the half-maximal inhibitory concentration (IC50) amounted to 87.2 nM.

In the case of `CC(C)(C)Cc1nnc(-c2ccc(NC(=O)Cc3ccn4ccnc4c3)cc2)o1` [Example 911, N-{4-[5-(2,2-dimethylpropyl)-1,3,4-oxadiazol-2-yl]phenyl}-2-(imidazo[1,2-a]pyridin-7-yl)acetamide], inhibition was half-maximal at 42.5 nM (IC50).

The compound `Cc1ccc(F)c(C(=O)N2CCC(c3ccc(NC(=O)NCc4ccn5ccnc5c4)cc3)CC2)n1` [Example 1017, 1-(4-{1-[(3-fluoro-6-methylpyridin-2-yl)carbonyl]piperidin-4-yl}phenyl)-3-(imidazo[1,2-a]pyridin-7-ylmethyl)urea] had an IC50 of 2.29 nM.

On to `O=C(NCc1ccn2ccnc2c1)Nc1ccc(C2CCN(C(=O)c3ncc(F)cc3F)CC2)cc1` [Example 1066, 1-(4-{1-[(3,5-difluoropyridin-2-yl)carbonyl]piperidin-4-yl}phenyl)-3-(imidazo[1,2-a]pyridin-7-ylmethyl)urea], for which the IC50 turned out to be 5.7 nM.

Compound `CC1(C(=O)N2CCC(c3ccc(C(=O)NCc4cn5ccnc5cn4)c(F)c3)CC2)CC1` [Example 1158, 2-fluoro-N-(imidazo[1,2-a]pyrazin-6-ylmethyl)-4-{1-[(1-methylcyclopropyl)carbonyl]piperidin-4-yl}benzamide] returned a half-inhibitory concentration (IC50) of 2.04 nM.

(Values after patent US9187472B2 (AbbVie Inc., priority 2012, dated 2015).)
